Measurements from US11326207B2, “Sequencing using non-natural nucleotides” (Ultima Genomics, Inc., priority 2017, dated 2022).

Assays:
Type in all cases: biochemical
Bst 2.0 DNA polymerase [1] = test: Homopolymer assays of nucleotide analogs (Example 10); settings: Natural Nucleotide C (dCTP = 1); template oligo 333, primer 221L
Experimental: (§1) A homopolymer assay was performed to investigate the effectiveness of E-dCTP and P-dUTP as nucleotide analogs of dCTP. 50 μl solutions containing a template nucleic acid molecule and primer and Bst 2.0 DNA polymerase are placed in a microplate reader and the fluorescence of the solution is measured in kinetic mode. A fluorescein attached to an oligonucleotide (indicated with a * in FIG. 7) was quenched in the substrate due to the proximity of complementary G bases. Addition of dCTP and/or dCTP analogs causes extension of the 3′ end of the primer, formation of double-stranded DNA, and unquenching of the fluorescein. The fluorescence increases with the addition of multiple nucleotides.
Additional homopolymer assays were performed according to the procedure outlined in Example 8 using different nucleotides and nucleotide analogs.
To test for dUTP or TTP incorporation, oligo 332 was used as a template and oligo 221L was used as a primer. To test for dCTP incorporation, oligo 333 was used as a template and oligo 221L was used as a primer. To test for dGTP incorporation, oligo 334 was used as a template and oligo 221L was used as a primer. To test for dATP incorporation, hairpin oligo 221 was used as both a primer and template.

Bst 2.0 DNA polymerase [2] = test: Homopolymer assay of dCTP analogs (Example 9); settings: rates of fluorescence, homopolymer template
Experimental: as §1

Bst DNA polymerase = biological target: T1, Bst DNA polymerase (Geobacillus stearothermophilus, UniProt P52026); test: Replacement of dCTP with P-dCTP, context metric (Example 10)
T1 sequence (P52026 1-876): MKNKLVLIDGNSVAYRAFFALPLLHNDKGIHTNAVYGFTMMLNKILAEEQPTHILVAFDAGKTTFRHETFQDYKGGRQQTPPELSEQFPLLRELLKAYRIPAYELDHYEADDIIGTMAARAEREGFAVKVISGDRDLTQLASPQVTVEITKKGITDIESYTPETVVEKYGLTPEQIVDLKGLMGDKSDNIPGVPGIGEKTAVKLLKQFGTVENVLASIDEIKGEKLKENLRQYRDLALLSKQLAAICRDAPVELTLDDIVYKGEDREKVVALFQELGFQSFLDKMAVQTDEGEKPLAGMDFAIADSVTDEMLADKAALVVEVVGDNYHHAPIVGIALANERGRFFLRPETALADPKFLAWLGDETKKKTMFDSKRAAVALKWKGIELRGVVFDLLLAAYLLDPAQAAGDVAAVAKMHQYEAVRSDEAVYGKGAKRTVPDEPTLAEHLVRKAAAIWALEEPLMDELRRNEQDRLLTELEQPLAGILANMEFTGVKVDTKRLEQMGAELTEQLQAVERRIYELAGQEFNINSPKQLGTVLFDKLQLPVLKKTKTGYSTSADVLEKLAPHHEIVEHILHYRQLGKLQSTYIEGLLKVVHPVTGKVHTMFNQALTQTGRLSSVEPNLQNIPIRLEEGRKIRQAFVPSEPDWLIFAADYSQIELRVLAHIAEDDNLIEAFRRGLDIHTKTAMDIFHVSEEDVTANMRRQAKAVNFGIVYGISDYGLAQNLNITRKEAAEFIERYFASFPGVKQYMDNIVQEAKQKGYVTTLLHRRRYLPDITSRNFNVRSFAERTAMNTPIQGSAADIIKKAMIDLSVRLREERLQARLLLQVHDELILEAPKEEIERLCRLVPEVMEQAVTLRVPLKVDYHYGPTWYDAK
Source text: A microscope slide surface was modified with polyaminosilane to allow the attachment of 1 micron beads each containing one of three different oligonucleotide templates. To each template was bound an oligonucleotide primer and Bst DNA polymerase. Solutions of mixtures of labeled and unlabeled nucleotide, of one type at a time, were exposed to the surface, followed by a wash solution. The fluorescence of labeled beads was detected and quantitated. The fluorescence label was cleaved by treatment with tris(hydroxypropyl)phosphine (THP) after each step.
Context was measured for each experiment. Context is given by the context metric, C, which is defined as the (maximum-minimum signal)/average signal.
Experiments were performed replacing dCTP with P-dCTP for three different oligonucleotide templates.

SMILES | Relative Rate in Homopolymer Assay (Bst 2.0 DNA polymerase [1]) | rate of incorporation compared with natural dCTP (Bst 2.0 DNA polymerase [2]) | C (context metric) (Bst DNA polymerase; Oligonucleotide template 1) | C (context metric) (Bst DNA polymerase; Oligonucleotide template 2) | C (context metric) (Bst DNA polymerase; Oligonucleotide template 3)
C#Cc1cn([C@H]2C[C@H](O)[C@@H](COP(=O)(O)OP(=O)(O)OP(=O)(O)O)O2)c(=O)nc1N [E-dCTP, 5-ethynyl-2′-deoxycytidine 5′triphosphate] | >1 | much faster than that of natural dCTP | – | – | –
Nc1ccn([C@H]2C[C@H](O)[C@@H](COP(=O)(O)OP(=O)(O)OP(=O)(O)O)O2)c(=O)n1 [dCTP, deoxycytidine triphosphate] | 1 | – | 0.85 | 0.72 | 0.70
